# Patent publication US20120220594A1, “METHODS FOR TREATING CANCER IN PATIENTS HAVING IGF-1R INHIBITOR RESISTANCE” (Bristol-Meyers Squibb Company, priority 2009, published 2012)
# Like-named read-outs stand apart in the source and are kept apart here.
# Columns and labels:
# [1] = test system: Rh41-807R xenograft tumors; test: In vivo xenograft tumor growth inhibition, Rh41-807R; details: Rh41-807R xenograft tumors in nude mice
# Description: (§3) Tumor volume was measured to assess tumor growth inhibition.
# PDGFRα RNA in Rh41 cells = test: Induction of PDGFRα expression in sensitive parental Rh41 cells (qRT-PCR); type: cell-based, human
# Description: FIGS. 3A-F show expression pattern comparisons of selected genes/proteins that uniquely changed expression only in 807R or in MAB391R. […] Insert: PDGFR-α protein expression pattern as detected by western blot. […] Cells starved for 24 hr, then stimulated with or without 50 ng/ml PDGF ligand fro 5 min. Cells were lyzed and 30 ug of total protein was used for western blot analyses. […] Insert: AXL protein expression as detected by western blot. […] Cells treated with 10 nM and 50 nM of BMS-754807 for 1, 2, 4, 8 and 24 hrs. PDGFRα RNA levels were measured by qRT-PCR and compared to the untreated time 0 control.
# Comparing genes expression profiles, the inventors found there were some key signaling pathways that were differentially expressed in Rh41-807R and Rh41-MAB391R cells. An interesting example was PDGFR-α, which had >89 fold increase in RNA expression in Rh41-807R cells but not in Rh41-MAB391R compared to the parental; and the induction of PDGFR-α was persistent even in cells out of BMS-754807 selection for 3 months (FIG. 3A). The expression pattern was also confirmed at protein levels (FIG. 3A); PDGFR-α was also constitutively activated in Rh41-807R cells (FIG. 3B). […] Other genes such as c-KIT, FGFR2 and EPHA3 had similar expression pattern as PDGFR-α (FIG. 3C). Several Eph receptor family members such as EPHA3, EPHA4 and EPHB2 as well as ligand EFNA3 were overexpressed in 807R.
# GEO-807R cells = test: 3H-thymidine incorporation cell proliferation assay in GEO-807R cells; type: cell-based
# Description: (§4) Cells were plated at an optimized density in 96-well plates, incubated overnight at 37° C., and then exposed to a serial dilution of the drugs. After 72 hours incubation, cells were pulsed with 4 μCi/ml [^3H]-thymidine (Amersham Pharmacia Biotech, UK) for 3 hours, trypsinized, harvested onto […] ®-96 GF/B plates (PerkinElmer, Boston, Mass.); scintillation was measured on a TOPCOUNTO NXT (Packard, Conn.). […] The mean IC50 and standard deviation from multiple tests for each cell line were calculated.
# SW403-807R cells = test: 3H-thymidine incorporation cell proliferation assay in SW403-807R cells; type: cell-based
# Description: as §4
# Rh41-MAB391R cells = test: 3H-thymidine incorporation cell proliferation assay in MAB391-resistant Rh41-MAB391R cells; type: cell-based, human
# From the text: Human rhabdomyosarcoma cell line Rh41 was provided by Dr. Lee Helman and grown in RPMI medium plus GLUTAMAX® supplemented with 10% fetal bovine serum (FBS), 10 mmol/L HEPES, penicillin, and streptomycin. To develop acquired resistant cells to either BMS-754807, or mAB391 (R&D Systems, Inc., Minneapolis, Minn.), the sensitive Rh41 cells were exposed to the corresponding drug at the IC50 concentration and then at gradually increasing concentrations every other culture passage. The IC50 value to the compound was measured periodically during this treatment time until the resistance level reached a plateau.
# (§1) Human rhabdomyosarcoma cell line Rh41 was chosen in this study to develop acquired resistance because it expresses IGF-1R (Huang et al., Cancer Res., 69(1):161-170 (Jan. 1, 2009)), the target of BMS-754807 and MAB391; and is sensitive to both drugs (Carboni et al., Proceedings of the 100th Annual Meeting of the American Association for Cancer Research, 2009 Apr. 18-22; Denver, Colo., Abstract No. 1742). The acquired-resistant Rh41-807R and Rh41-MAB391R cell lines were developed using a stepwise exposure to increasing concentrations of either IGF-1R/IR inhibitor BMS-754807 or IGF-1R antibody MAB391 for extended periods of time until a resistance plateau was reach. […];
# MCF-7-807R cells = test: 3H-thymidine incorporation cell proliferation assay in MCF-7-807R cells
# Description: as §4
# Rh41-807Rout cells = test: Cell proliferation assay in Rh41-807Rout cells (out of drug selection for 3 months); type: cell-based, human; details: out of drug selection for 3 months of passages
# From the text: as §1
# Rh1-807R cells = test: 3H-thymidine incorporation cell proliferation assay in Rh1-807R cells; type: cell-based
# Description: as §4
# Geo cells = test: 3H-thymidine incorporation cell proliferation assay in Geo cells; type: cell-based
# Description: as §4
# [2] = test system: Rh41 cells with PDGFR-α knockdown; test: Proliferation assay in Rh41 cells transfected with PDGFR-α specific siRNA; details: Rh41 sensitive parental cells
# Description: (§5) RISC-free siRNA was transfected as the negative control (Dharmacon). Following the addition of the drugs, cells were incubated at 37° C. for 72 hours before cell growth was measured by incorporation of ^3H-thymidine as described for in vitro cellular proliferation assays.
# SW403 cells = test: 3H-thymidine incorporation cell proliferation assay in SW403 cells; type: cell-based; details: Homo sapiens, SW-403
# Description: as §4
# Rh41 cells = test: 3H-thymidine incorporation cell proliferation assay in parental Rh41 cells; type: cell-based, human; details: Homo sapiens
# From the text: (§2) Human rhabdomyosarcoma cell line Rh41 was provided by Dr. Lee Helman and grown in RPMI medium plus GLUTAMAX® supplemented with 10% fetal bovine serum (FBS), 10 mmol/L HEPES, penicillin, and streptomycin.
# Rh41-807R cells [3] = test: 3H-thymidine incorporation cell proliferation assay in BMS-754807-resistant Rh41-807R cells; type: cell-based, human; details: for IC50: Homo sapiens
# From the text: as §2
# Rh41 xenograft tumors = test: In vivo xenograft tumor growth inhibition, Rh41; details: Rh41 xenograft tumors in nude mice
# Description: as §3
# [4] = test system: Rh41-807R cells with PDGFR-α knockdown; test: Proliferation assay in Rh41-807R cells transfected with PDGFR-α specific siRNA; details: Rh41-807R cells treated with PDGFR-α siRNA
# Description: as §5
# Rh1 cells = test: 3H-thymidine incorporation cell proliferation assay in Rh1 cells; type: cell-based; details: Homo sapiens, RH-1
# Description: as §4
# Rh41-807R cells [5] = details: 1:1 ratio, Combination Index less than 1 indicates synergy
# From the text: A dilution of ratios drug combination method was used in cellular proliferation assays to test the IC50 values of single agent (A or B) as well as in combination (a or b). […] Combination Index=(a/A+b/B).
# [6] = read-out: IGF-1R inhibitor Compound (IC50)
structure (smiles),measurement,setting,value
"C[C@@]1(C(=O)Nc2ccc(F)nc2)CCCN1c1nc(Nc2cc(C3CC3)[nH]n2)c2cccn2n1 [BMS-754807, (2S)-1-(4-((5-cyclopropyl-1H-pyrazol-3-yl)amino)pyrrolo[2,1-f][1,2,4]triazin-2-yl)-N-(6-fluoro-3-pyridinyl)-2-methyl-2-pyrrolidinecarboxamide]",tumor growth inhibition (TGI),[1],35%
same,time at which induction of PDGFRα RNA was seen after treatment,PDGFRα RNA in Rh41 cells; Rh41 cells,4 h
same,induction of PDGFR-α expression,"PDGFRα RNA in Rh41 cells; Rh41 sensitive parental cells, 10 nM and 50 nM",dose-dependent
same,IC50,"GEO-807R cells; BMS-754807-resistant Geo cells, maintenance conc. 2000, Table 8, read-out: IC50",1230 nM
same,IC50,"GEO-807R cells; GEO-807R cells, Table 9, read-out: IGF-1R inhibitor Compound (IC50)",1230 ± 251 nM
same,Relative resistance,"GEO-807R cells; fold change in IC50, resistant vs parental Geo cells",3.5X
same,IC50,"SW403-807R cells; Homo sapiens, SW-403, BMS-754807-resistant SW403 cells, maintenance conc. 500, Table 8, read-out: IC50",979 nM
same,IC50,"SW403-807R cells; SW403-807R cells, Table 9, read-out: IGF-1R inhibitor Compound (IC50)",979 ± 528 nM
same,Relative resistance,"SW403-807R cells; fold change in IC50, resistant vs parental SW403 cells",4.5X
same,IC50,"Rh41-MAB391R cells; Homo sapiens, read-out: IC50 (nM) Rh41-MAB391R",27 nM
same,activity in the Rh41-MAB391R model,Rh41-MAB391R cells; growth inhibited to a comparable level as the parental cells,relatively active
same,IC50,"MCF-7-807R cells; Homo sapiens, MCF7",735 nM
same,Relative resistance,"MCF-7-807R cells; fold change in IC50, resistant vs parental MCF-7 cells",46X
same,IC50,MCF-7-807R cells; [6],972 ± 400 nM
same,resistance of Rh41-807Rout,Rh41-807Rout cells,significant level of resistance
same,IC50,"Rh1-807R cells; Homo sapiens, RH-1, BMS-754807-resistant Rh1 cells, maintenance conc. 120, Table 8, read-out: IC50",1800 nM
same,IC50,"Rh1-807R cells; Rh1-807R cells, Table 9, read-out: IGF-1R inhibitor Compound (IC50)",1800 ± 1390 nM
same,Relative resistance,"Rh1-807R cells; fold change in IC50, resistant vs parental Rh1 cells",66.5X
same,IC50,"Geo cells; Geo cells, Table 9, read-out: IGF-1R inhibitor Compound (IC50)",350 nM
same,IC50,"Geo cells; Geo parental cells, Table 8, read-out: Parental IC50",350 nM
same,"sensitivity between untransfected, control siRNA and PDGFR-α-specific siRNA transfected cells",[2],no significant differences in the sensitivity
same,IC50,"SW403 cells; SW403 cells, Table 9, read-out: IGF-1R inhibitor Compound (IC50)",220 nM
same,IC50,"SW403 cells; SW403 parental cells, Table 8, read-out: Parental IC50",220 nM
same,IC50,"Rh41 cells; Rh41, read-out: IC50 (nM) Rh41",5 nM
same,IC50,"Rh41 cells; Rh41, read-out: IGF-1R inhibitor Compound (IC50)",5 nM
same,IC50,"Rh41 cells; Rh41, read-out: Parental IC50 (nM)",5 nM
same,IC50,Rh41-807R cells [3]; Rh41,811 nM
same,IC50,Rh41-807R cells [3]; read-out: IC50 (nM) Rh41-807R,811 nM
same,IC50,Rh41-807R cells [3]; [6],811 nM
same,Relative resistance,"Rh41-807R cells [3]; fold change in IC50, resistant vs parental Rh41 cells",162X
same,tumor growth inhibition (TGI),Rh41 xenograft tumors,73%
same,response to growth inhibition after PDGFR-α siRNA,[4],sensitive to growth inhibition
same,IC50,"Rh1 cells; Rh1 cells, Table 9, read-out: IGF-1R inhibitor Compound (IC50)",27 nM
same,IC50,"Rh1 cells; Rh1 parental cells, Table 8, read-out: Parental IC50",27 nM
Cc1ccc(NC(=O)c2ccc(CN3CCN(C)CC3)cc2)cc1Nc1nccc(-c2cccnc2)n1 [imatinib],activity in growth inhibition in combination with BMS-754807,Rh41-807R cells [5],synergistic activity
